Publication PMC10877733, “Discovery and Characterization of VU0542270, the First Selective Inhibitor of Vascular Kir6.1/SUR2B KATP Channels” (Molecular Pharmacology, 2024)
Where “and” joins values, the source holds several entries; their conditions need not be identical. Equal values may be shown once.

Legend:
Assay type in all cases: cell-based
[1] = target: T1, Kir6.1/SUR2B (Homo sapiens, UniProt O60706); experiment: Whole-cell patch clamp electrophysiology, T-Rex-HEK293-Kir6.1/SUR2B cells
T1 construct: expressed in transfected cells; also transiently transfected HEK293T
Procedure: T-Rex-HEK293-Kir6.1/SUR2B cells were plated into tissue culture-treated 35-mm polystyrene dishes at a density of 250,000 cells and cultured in a 5% CO2 incubator at 37°C. Whole-cell patch-clamp recordings were performed 48 hours after plating. Cells were dissociated on the experiment day and plated on poly-L-lysine–coated coverslips and allowed to recover for at least 1 hour in a 37°C/5% CO2 incubator before beginning experiments. Patch electrodes (2 to 3 MΩ) were filled with an intracellular solution containing 130 mM KCl, 2 mM MgCl2, 1 mM EGTA, 20 mM HEPES-free acid, and 2 mM Na2ATP (Roche Diagnostics, Risch-Rotkreuz, Switzerland), pH 7.3, titrated with KOH, and osmolarity 275 mOsmol/kg of water (adjusted with sucrose). The standard bath solution contained 135 mM NaCl, 5 mM KCl, 2 mM CaCl2, 1 mM MgCl2, 5 mM glucose, and 10 mM HEPES-free acid, pH 7.4, titrated with NaOH. Serial dilutions of compounds were first made in DMSO and then in bath solution so that the final DMSO concentration was 0.1% v/v across all test doses. Macroscopic currents were recorded under voltage-clamp conditions using an Axopatch 200B Amplifier (Molecular Devices, Sunnyvale, CA). Data were collected at 5 kHz and filtered at 1 kHz. […] IC50 values were determined by fitting the Hill equation to CRCs using variable-slope nonlinear regression analyses. […]

[2] = target: T2, Kir4.2 (Homo sapiens, UniProt Q99712); experiment: Thallium flux selectivity assay Kir4.2
T2 construct: expressed in transfected cells
T2 sequence (Q99712 1-375): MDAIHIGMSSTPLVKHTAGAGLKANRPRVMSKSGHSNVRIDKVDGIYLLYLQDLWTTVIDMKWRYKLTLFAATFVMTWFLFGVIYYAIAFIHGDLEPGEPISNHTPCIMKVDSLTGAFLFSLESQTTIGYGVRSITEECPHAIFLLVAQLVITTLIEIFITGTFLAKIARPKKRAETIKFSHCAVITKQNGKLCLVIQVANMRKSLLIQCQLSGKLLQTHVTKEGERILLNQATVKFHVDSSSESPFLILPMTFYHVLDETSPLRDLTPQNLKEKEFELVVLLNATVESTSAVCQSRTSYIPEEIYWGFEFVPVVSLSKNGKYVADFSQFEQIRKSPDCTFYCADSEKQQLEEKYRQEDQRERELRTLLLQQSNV
Procedure: (§1) Quantitative thallium flux assays of Kir6.1/SUR2B activity were performed essentially as described previously for Kir6.2/SUR1 ([Raphemot et al., 2014]; [Kharade et al., 2019]). Stable T-Rex-HEK293-Kir6.1/SUR2B cells or transiently transfected HEK293T cells were plated in polyamine-coated, clear-bottomed, black-walled 384-well plates and were cultured (37°C/5% CO2) overnight in Dulbecco’s modified Eagle’s medium (Gibco, Carlsbad, CA, 11995-065) containing 10% FBS (2 mM Penicillin-Streptomycin). The following day, cells were washed with assay buffer (i.e., Hanks’ balanced salt solution/20 mM HEPES) and loaded for 1 hour with thallium sensor dye Brilliant Thallium (Ion Bioscience, San Marcos, TX) at room temperature. Dye-loaded cells were washed with assay buffer and transferred to a Panoptic Kinetic Imaging Plate Reader (Wavefront Bioscience, Franklin, TN). Control and test compound treatments were for 4 minutes prior to adding 0.5 mM chloride-free thallium stimulus buffer (Ion Bioscience) to initiate thallium flux. […] Selectivity assays against other Kir channels were performed essentially as described previously ([Kharade et al., 2018]; [McClenahan et al., 2022]).

[3] = target: T3, Kir2.2 (Homo sapiens, UniProt Q14500); experiment: Thallium flux selectivity assay Kir2.2
T3 construct: expressed in transfected cells
T3 sequence (Q14500 1-433): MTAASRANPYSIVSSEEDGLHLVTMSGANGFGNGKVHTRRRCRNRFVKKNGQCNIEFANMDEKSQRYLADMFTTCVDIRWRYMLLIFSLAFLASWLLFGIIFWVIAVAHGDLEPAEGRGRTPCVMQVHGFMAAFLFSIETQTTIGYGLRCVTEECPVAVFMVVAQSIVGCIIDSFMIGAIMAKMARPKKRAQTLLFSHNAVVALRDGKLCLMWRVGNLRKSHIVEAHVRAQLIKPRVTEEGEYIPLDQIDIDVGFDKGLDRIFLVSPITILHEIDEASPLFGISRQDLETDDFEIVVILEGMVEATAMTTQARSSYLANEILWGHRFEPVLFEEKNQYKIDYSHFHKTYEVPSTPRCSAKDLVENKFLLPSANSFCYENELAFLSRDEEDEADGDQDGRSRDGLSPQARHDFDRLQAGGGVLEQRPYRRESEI
Procedure: as §1

T1 sequence (O60706 1-1549 isoform O60706-2, species assumed): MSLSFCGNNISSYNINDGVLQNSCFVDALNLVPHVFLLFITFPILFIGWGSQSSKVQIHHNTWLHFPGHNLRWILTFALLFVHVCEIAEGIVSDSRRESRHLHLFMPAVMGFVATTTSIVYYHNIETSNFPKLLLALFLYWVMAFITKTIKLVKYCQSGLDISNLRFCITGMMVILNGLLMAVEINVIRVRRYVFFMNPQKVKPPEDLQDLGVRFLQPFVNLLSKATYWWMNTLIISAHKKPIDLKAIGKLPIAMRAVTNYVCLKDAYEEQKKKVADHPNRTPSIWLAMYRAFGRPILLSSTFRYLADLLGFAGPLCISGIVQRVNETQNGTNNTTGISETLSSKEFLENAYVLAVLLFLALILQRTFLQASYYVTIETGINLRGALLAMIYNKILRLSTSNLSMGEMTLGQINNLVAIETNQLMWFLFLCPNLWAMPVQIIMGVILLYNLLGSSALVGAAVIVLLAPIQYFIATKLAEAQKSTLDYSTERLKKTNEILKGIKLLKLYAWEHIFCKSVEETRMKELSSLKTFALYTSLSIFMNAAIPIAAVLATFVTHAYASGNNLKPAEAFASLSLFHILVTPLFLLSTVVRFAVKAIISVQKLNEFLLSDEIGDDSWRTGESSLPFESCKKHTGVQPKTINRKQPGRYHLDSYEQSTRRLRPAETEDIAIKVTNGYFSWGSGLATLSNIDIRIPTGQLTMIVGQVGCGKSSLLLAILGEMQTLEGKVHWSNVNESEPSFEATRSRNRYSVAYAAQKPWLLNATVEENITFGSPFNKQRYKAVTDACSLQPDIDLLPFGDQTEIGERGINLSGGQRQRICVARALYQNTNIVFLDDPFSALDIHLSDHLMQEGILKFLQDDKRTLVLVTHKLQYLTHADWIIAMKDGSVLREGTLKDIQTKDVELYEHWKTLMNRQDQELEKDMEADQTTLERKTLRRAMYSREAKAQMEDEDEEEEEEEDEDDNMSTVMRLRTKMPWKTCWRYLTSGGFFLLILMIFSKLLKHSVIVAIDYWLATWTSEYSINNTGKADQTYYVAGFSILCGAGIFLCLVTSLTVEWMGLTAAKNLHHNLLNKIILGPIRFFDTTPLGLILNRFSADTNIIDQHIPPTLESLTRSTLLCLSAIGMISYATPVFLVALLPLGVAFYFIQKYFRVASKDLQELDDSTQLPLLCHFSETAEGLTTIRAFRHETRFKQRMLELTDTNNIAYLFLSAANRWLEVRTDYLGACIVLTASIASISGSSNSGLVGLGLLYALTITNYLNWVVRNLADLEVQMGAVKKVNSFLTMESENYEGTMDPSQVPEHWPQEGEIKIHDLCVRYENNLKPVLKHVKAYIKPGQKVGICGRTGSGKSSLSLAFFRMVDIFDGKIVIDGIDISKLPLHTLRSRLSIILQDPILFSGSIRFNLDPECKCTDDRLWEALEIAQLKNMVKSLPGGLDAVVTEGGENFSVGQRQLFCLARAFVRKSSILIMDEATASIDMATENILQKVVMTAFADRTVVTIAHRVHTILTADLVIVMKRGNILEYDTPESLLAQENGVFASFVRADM
T1 sequence (Q15842 whole entry partner, species assumed): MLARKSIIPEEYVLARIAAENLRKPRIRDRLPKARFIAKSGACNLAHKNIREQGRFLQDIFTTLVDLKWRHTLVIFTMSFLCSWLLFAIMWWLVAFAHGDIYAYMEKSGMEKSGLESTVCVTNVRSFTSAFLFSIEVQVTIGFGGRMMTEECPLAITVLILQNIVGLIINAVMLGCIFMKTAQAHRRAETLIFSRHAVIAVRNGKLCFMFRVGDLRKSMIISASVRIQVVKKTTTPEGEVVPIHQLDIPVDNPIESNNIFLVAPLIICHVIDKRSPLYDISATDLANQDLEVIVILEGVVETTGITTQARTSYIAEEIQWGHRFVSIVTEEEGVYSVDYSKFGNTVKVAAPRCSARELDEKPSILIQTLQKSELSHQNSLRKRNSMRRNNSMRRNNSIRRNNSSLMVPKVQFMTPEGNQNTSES

IC50 ([1]; 1 µM pinacidil-activated, normalized to maximal inhibition by 10 µM VU0542270, read-out: Kir6.1/SUR2B IC50, whole-cell current): ~0.279 µM and 0.278 µM
inhibition of KATP current ([1]; 10 µM compound in continued presence of 1 µM pinacidil): complete inhibition
IC50 [2]: > 30 µM
IC50 [3]: > 30 µM
Compound: Cc1nc(-c2cccs2)sc1CNC(=O)Nc1cccs1 [VU0542270]
